# Assay results as given in the supplement of paper PMC10733146.
# Columns and labels:
# Experiment in all cases: viability relative to DMSO control (fraction); higher = less drug effect (more viable cells)
# Conditions in all cases: 48 h
# SGC 0946 = compound: CC(C)N(CCCNC(=O)Nc1ccc(C(C)(C)C)cc1)C[C@H]1O[C@@H](n2cc(Br)c3c(N)ncnc32)[C@H](O)[C@@H]1O [SGC 0946]
# Method in brief: (§1)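 Cells were incubated for 48 h at 37 °C and 5% CO2 in RPMI-1640 with penicillin/streptomycin, L-glutamine and human serum, at 4 × 10^4 cells per well in 384-well plates with compounds pre-plated at five concentrations, one well each. These were primary mononuclear tumour cells, fresh or cryopreserved, Ficoll-isolated from blood or bone marrow or obtained from processed lymph node. Viability values are CellTiter-Glo luminescence relative to the median of 16 inner DMSO wells.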
# Roscovitine = compound: CC[C@H](CO)Nc1nc(NCc2ccccc2)c2ncn(C(C)C)c2n1 [Roscovitine]
# Method in brief: as §1
# Vindesine = compound: CC[C@]1(O)C[C@@H]2CN(CCc3c([nH]c4ccccc34)[C@@](C(=O)OC)(c3cc4c(cc3OC)N(C)[C@H]3[C@@](O)(C(N)=O)[C@H](O)[C@]5(CC)C=CCN6CC[C@]43[C@@H]65)C2)C1 [Vindesine]
# Method in brief: as §1
# Midostaurin hydrate = compound: CO[C@@H]1[C@H](N(C)C(=O)c2ccccc2)C[C@H]2O[C@]1(C)n1c3ccccc3c3c4c(c5c6ccccc6n2c5c31)C(=O)NC4 [Midostaurin hydrate]
# Method in brief: as §1
# Everolimus = compound: CO[C@H]1C[C@@H]2CC[C@@H](C)[C@@](O)(O2)C(=O)C(=O)N2CCCC[C@H]2C(=O)O[C@H]([C@H](C)C[C@@H]2CC[C@@H](OCCO)[C@H](OC)C2)CC(=O)[C@H](C)/C=C(\C)[C@@H](O)[C@@H](OC)C(=O)[C@H](C)C[C@H](C)/C=C/C=C/C=C/1C [Everolimus]
# Method in brief: as §1
# Idasanutlin (RS7388) = compound: COc1cc(C(=O)O)ccc1NC(=O)[C@@H]1N[C@@H](CC(C)(C)C)[C@](C#N)(c2ccc(Cl)cc2F)[C@H]1c1cccc(Cl)c1F [Idasanutlin (RS7388)]
# Method in brief: as §1
# Etoposide = compound: COc1cc([C@@H]2c3cc4c(cc3[C@@H](O[C@@H]3O[C@@H]5CO[C@@H](C)O[C@H]5[C@H](O)[C@H]3O)[C@H]3COC(=O)[C@H]23)OCO4)cc(OC)c1O [Etoposide]
# Method in brief: as §1
# Tofacitinib = compound: C[C@@H]1CCN(C(=O)CC#N)C[C@@H]1N(C)c1ncnc2[nH]ccc12 [Tofacitinib]
# Method in brief: as §1
# Duvelisib = compound: C[C@H](Nc1ncnc2nc[nH]c12)c1cc2cccc(Cl)c2c(=O)n1-c1ccccc1 [Duvelisib]
# Method in brief: as §1
# Bendamustine = compound: Cn1c(CCCC(=O)O)nc2cc(N(CCCl)CCCl)ccc21 [Bendamustine]
# Method in brief: as §1
# Pomalidomide = compound: Nc1cccc2c1C(=O)N(C1CCC(=O)NC1=O)C2=O [Pomalidomide]
# Method in brief: as §1
# [1] = compound: O=C(Nc1ccc2[nH]nc(-c3ccncc3)c2c1)[C@@H]1CCN(CC(=O)N2CCN(c3ccc(-c4ncccn4)cc3)CC2)C1
# Method in brief: as §1
# Chlorambucil = compound: O=C(O)CCCc1ccc(N(CCCl)CCCl)cc1 [Chlorambucil]
# Method in brief: as §1
# Entospletinib = compound: c1cn2cc(-c3ccc4cn[nH]c4c3)nc(Nc3ccc(N4CCOCC4)cc3)c2n1 [Entospletinib]
# Method in brief: as §1
test system,measurement,setting,value
primary MCL patient cells (S063),viability,SGC 0946; 0.024 µM,0.916
same,viability,SGC 0946; 0.12 µM,0.949
same,viability,SGC 0946; 0.6 µM,0.914
same,viability,SGC 0946; 3 µM,0.888
same,viability,SGC 0946; 15 µM,0.718
same,viability,Roscovitine; 0.032 µM,1.08
same,viability,Roscovitine; 0.16 µM,1.02
same,viability,Roscovitine; 0.8 µM,1.09
same,viability,Roscovitine; 4 µM,0.93
same,viability,Roscovitine; 20 µM,0.649
same,viability,Vindesine; 0.016 µM,0.731
same,viability,Vindesine; 0.08 µM,0.182
same,viability,Vindesine; 0.4 µM,0.175
same,viability,Vindesine; 2 µM,0.122
same,viability,Vindesine; 10 µM,0.108
same,viability,Midostaurin hydrate; 0.024 µM,1.02
same,viability,Midostaurin hydrate; 0.12 µM,1.07
same,viability,Midostaurin hydrate; 0.6 µM,1.11
same,viability,Midostaurin hydrate; 3 µM,1.08
same,viability,Midostaurin hydrate; 15 µM,0.2
same,viability,Everolimus; 0.0032 µM,1.02
same,viability,Everolimus; 0.016 µM,0.958
same,viability,Everolimus; 0.08 µM,0.959
same,viability,Everolimus; 0.4 µM,0.921
same,viability,Everolimus; 2 µM,0.958
same,viability,Idasanutlin (RS7388); 0.032 µM,0.767
same,viability,Idasanutlin (RS7388); 0.16 µM,0.798
same,viability,Idasanutlin (RS7388); 0.8 µM,0.485
same,viability,Idasanutlin (RS7388); 4 µM,0.272
same,viability,Idasanutlin (RS7388); 20 µM,0.15
same,viability,Etoposide; 0.032 µM,1.11
same,viability,Etoposide; 0.16 µM,0.958
same,viability,Etoposide; 0.8 µM,1
same,viability,Etoposide; 4 µM,1.07
same,viability,Etoposide; 20 µM,0.698
same,viability,Tofacitinib; 0.024 µM,1.02
same,viability,Tofacitinib; 0.12 µM,0.945
same,viability,Tofacitinib; 0.6 µM,1.05
same,viability,Tofacitinib; 3 µM,1.14
same,viability,Tofacitinib; 15 µM,1.21
same,viability,Duvelisib; 0.0016 µM,0.73
same,viability,Duvelisib; 0.008 µM,0.662
same,viability,Duvelisib; 0.04 µM,0.665
same,viability,Duvelisib; 0.2 µM,0.619
same,viability,Duvelisib; 1 µM,0.526
same,viability,Bendamustine; 0.032 µM,0.975
same,viability,Bendamustine; 0.16 µM,0.983
same,viability,Bendamustine; 0.8 µM,1
same,viability,Bendamustine; 4 µM,0.938
same,viability,Bendamustine; 20 µM,0.52
same,viability,Pomalidomide; 0.0032 µM,1
same,viability,Pomalidomide; 0.016 µM,1.08
same,viability,Pomalidomide; 0.08 µM,1.14
same,viability,Pomalidomide; 0.4 µM,1.08
same,viability,Pomalidomide; 2 µM,1.11
same,viability,[1]; 0.008 µM,0.965
same,viability,[1]; 0.04 µM,0.985
same,viability,[1]; 0.2 µM,0.989
same,viability,[1]; 1 µM,0.931
same,viability,[1]; 5 µM,0.858
same,viability,Chlorambucil; 0.032 µM,0.932
same,viability,Chlorambucil; 0.16 µM,0.999
same,viability,Chlorambucil; 0.8 µM,1.03
same,viability,Chlorambucil; 4 µM,0.909
same,viability,Chlorambucil; 20 µM,0.388
same,viability,Entospletinib; 0.024 µM,0.995
same,viability,Entospletinib; 0.12 µM,0.948
same,viability,Entospletinib; 0.6 µM,0.892
same,viability,Entospletinib; 3 µM,0.998
same,viability,Entospletinib; 15 µM,0.952
primary AML patient cells (S089),viability,SGC 0946; 0.024 µM,0.722
same,viability,SGC 0946; 0.12 µM,0.985
same,viability,SGC 0946; 0.6 µM,0.781
same,viability,SGC 0946; 3 µM,0.737
same,viability,SGC 0946; 15 µM,0.229
same,viability,Roscovitine; 0.032 µM,0.621
same,viability,Roscovitine; 0.16 µM,0.991
same,viability,Roscovitine; 0.8 µM,0.635
same,viability,Roscovitine; 4 µM,1.1
same,viability,Roscovitine; 20 µM,0.388
same,viability,Vindesine; 0.016 µM,0.526
same,viability,Vindesine; 0.08 µM,0.75
same,viability,Vindesine; 0.4 µM,0.485
same,viability,Vindesine; 2 µM,0.419
same,viability,Vindesine; 10 µM,0.43
same,viability,Midostaurin hydrate; 0.024 µM,0.564
same,viability,Midostaurin hydrate; 0.12 µM,0.689
same,viability,Midostaurin hydrate; 0.6 µM,0.866
same,viability,Midostaurin hydrate; 3 µM,0.665
same,viability,Midostaurin hydrate; 15 µM,0.504
same,viability,Everolimus; 0.0032 µM,0.851
same,viability,Everolimus; 0.016 µM,0.83
same,viability,Everolimus; 0.08 µM,0.849
same,viability,Everolimus; 0.4 µM,0.825
same,viability,Everolimus; 2 µM,0.715
same,viability,Idasanutlin (RS7388); 0.032 µM,0.929
same,viability,Idasanutlin (RS7388); 0.16 µM,0.889
same,viability,Idasanutlin (RS7388); 0.8 µM,0.691
same,viability,Idasanutlin (RS7388); 4 µM,0.581
same,viability,Idasanutlin (RS7388); 20 µM,0.301
same,viability,Etoposide; 0.032 µM,1.14
same,viability,Etoposide; 0.16 µM,0.998
same,viability,Etoposide; 0.8 µM,0.998
same,viability,Etoposide; 4 µM,0.951
same,viability,Etoposide; 20 µM,0.668
same,viability,Tofacitinib; 0.024 µM,0.803
same,viability,Tofacitinib; 0.12 µM,0.705
same,viability,Tofacitinib; 0.6 µM,0.629
same,viability,Tofacitinib; 3 µM,0.655
same,viability,Tofacitinib; 15 µM,0.516
same,viability,Duvelisib; 0.0016 µM,0.607
same,viability,Duvelisib; 0.008 µM,0.669
same,viability,Duvelisib; 0.04 µM,0.615
same,viability,Duvelisib; 0.2 µM,0.543
same,viability,Duvelisib; 1 µM,0.537
same,viability,Bendamustine; 0.032 µM,0.913
same,viability,Bendamustine; 0.16 µM,0.995
same,viability,Bendamustine; 0.8 µM,1.01
same,viability,Bendamustine; 4 µM,1.05
same,viability,Bendamustine; 20 µM,0.855
same,viability,Pomalidomide; 0.0032 µM,0.815
same,viability,Pomalidomide; 0.016 µM,0.669
same,viability,Pomalidomide; 0.08 µM,0.639
same,viability,Pomalidomide; 0.4 µM,0.665
same,viability,Pomalidomide; 2 µM,0.644
same,viability,[1]; 0.008 µM,0.643
same,viability,[1]; 0.04 µM,0.593
same,viability,[1]; 0.2 µM,0.543
same,viability,[1]; 1 µM,0.515
same,viability,[1]; 5 µM,0.47
same,viability,Chlorambucil; 0.032 µM,0.996
same,viability,Chlorambucil; 0.16 µM,1.04
same,viability,Chlorambucil; 0.8 µM,1
same,viability,Chlorambucil; 4 µM,0.957
same,viability,Chlorambucil; 20 µM,0.724
same,viability,Entospletinib; 0.024 µM,0.776
same,viability,Entospletinib; 0.12 µM,0.601
same,viability,Entospletinib; 0.6 µM,0.638
same,viability,Entospletinib; 3 µM,0.567
same,viability,Entospletinib; 15 µM,0.714
